In EP0084757A1, “Trisubstituted diaza derivatives” (CIBA-GEIGY AG, priority 1982, dated 1983):
In brackets after ≈: the same amount, converted by molar mass.

Test system: mit Crotonöl induzierten Rattenohroedems
Assay: Inhibition of croton oil-induced rat ear oedema (method of Tonelli and Thibault)
Type: in vivo, Normalratte
Settings: inhibition of croton oil-induced ear oedema in the normal rat; local application
Procedure: Diese Eigenschaft lässt sich beispielsweise nach der von G. Tonelli, L. Thibault, Endocrinology 77, 625 (1965) entwickelten Methode durch Hemmung des mit Crotonöl induzierten Rattenohroedems bei der Normalratte im Dosisbereich von etwa 1 bis etwa 100 mg/ml nachweisen.

## COC(Cc1nc(-c2ccccc2)c(-c2cccnc2)[nH]1)OC [2-[4(5)-Phenyl-5(4)-(3-pyridyl)-imidazol-2-yl]-acetaldehyd-dimethylacetal]
  ED50-Wert: 18 mg/mL (≈ 58.2 mM)
